From patent publication US20240109896A1, “FGFR KINASE INHIBITOR AND USE THEREOF” (YA THERAPEUTICS INC, priority 2021, published 2024)
Like-named read-outs stand apart in the source and are kept apart here.

Experiments:
Hep3B cells = test: Human hepatoma cell Hep3B survival test (CellTiter-Glo); type: cell-based; settings: treated 72 hours, read-out: inhibitory activity on Hep3B cell proliferation IC50
Procedure: The Hep3B cell line of human liver cancer is derived from ATCC. Cells are supplemented with McCoy's 5A medium and additionally added fetal bovine serum (IOFBS). Cells are kept in the medium at 37° C., humidity at 95%, and carbon dioxide at 500. Hep3B cells were seeded in 96-well plates at a density of 3500 cells per well with a cell suspension volume of 90 μL per well and cultured at 37° C. in a cell culture incubator containing 500 CO2. […] The cells were then placed in a 37° C. incubator and treated with compounds for 72 hours.

FGFR2 = FGFR2 (Homo sapiens, UniProt P21802); test: In vitro activity inhibition test for kinase FGFR2; type: biochemical; settings: kinase assay, 25° C.; read-out: Inhibition of separase IC50 (nM) FGFR2
FGFR3 = FGFR3 (Homo sapiens, UniProt P22607); test: In vitro activity inhibition test for kinase FGFR3;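 also: FGFR3 kinase activity read by Caliper mobility shift assay, compounds run as 10-point 4-fold dilution series, final DMSO 0.5%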
Procedure: (§3) In Vitro Activity Inhibition Test for Kinases FGFR1, FGFR2, FGFR3 and FGFR4
(§4) The activity of FGFR1, FGFR2, FGFR3 and FGFR4 protein kinases was determined by Caliper mobility shift assay. Perform a 4-fold gradient dilution from a working concentration of 0.2 mM in DMSO, diluting 10 concentrations. Add 2 μL of compound to 78 μL of 1× compound buffer. There were 10 points each for the negative control and the positive control. Shake the board on the rocker for 20 min. […] The final concentration of DMSO was 0.5%.

FGFR1 = FGFR1 (Homo sapiens, UniProt P11362); test: In vitro activity inhibition test for kinase FGFR1
Procedure: as §3, §4

FGFR4 = FGFR4 (Homo sapiens, UniProt P22455); test: In vitro activity inhibition test for kinase FGFR4;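 also: caliper mobility shift assay of FGFR4 kinase activity, compounds tested as 10-point 4-fold dilution series with 0.5% DMSO final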
Procedure: as §3, §4

hERG potassium channel = target: T1, hERG potassium channel (Homo sapiens, UniProt Q12809); test: Determination of potassium channel blockade of hERG (whole-cell patch clamp, Qpatch); type: cell-based; settings: HEK293 cells stably expressing hERG, tail current, 24° C.
T1 construct: host or cells: HEK293
Procedure: Example 59: Determination of Potassium Channel Blockade of hERG
The experimental methods are in follows:
extracellular fluid: 140 mM NaCl, 3.5 mM KCl, 1 mM MgCl2, 2 mM CaCl2, 10 mM D-glucose, 10 mM HEPES, 1.25 mM NaH2PO4, pH=7.40
ISE Internal Solution: 20 mM KCl, 115 mM K-aspartate, 1 mM MgCl2, 5 mM EGTA, 10 mM HEPES, 2 mM Na2-ATP, pH=7.2
Cell culture: HEK293 cell line with stable expression of hERG potassium channel was used, and hERG potassium channel cells were purchased from Creacell (catalog number: A-0320). It was cultured in DMEM medium containing 10 fetal bovine serum and 0.8 mg/mL G418 at 37° C. and a carbon dioxide concentration of 5%. Take out the old medium and wash once with PBS, then add 2 mL of TrypLE™ Express solution and incubate at 37° C. for about 1 min. When the cell detaches from the bottom of the dish, add approximately 5 mL of complete medium pre-warmed at 37° C. Gently pipette the cell suspension with a pipette to detach the aggregated cells. […]
Each drug concentration is set for two administrations for at least 5 minutes. The tested compound and the compound-free external fluid acts on the cells sequentially from low to high concentration, and each cell uses the current detected in the compound-free exo-liquid as its own control group, and the detection of the two cells is repeated independently. […]

[1] = system: human bladder cancer cells (RT4); test: Proliferation inhibition of human bladder cancer cells RT4 (CellTiter-Glo); type: cell-based; settings: RT4, 3 days
Procedure: (§1) Using the CellTiter-Glo<TM>Live Cell Assay Kit, The inhibitory effect of the test compound on the proliferation of human gastric cancer cells (SNU-16) and FGFR3 high expression and FGFR3 fusion of FGFR3-TACC3 fused human bladder cancer cells (RT4) was determined. Among them, RT4 medium is added with fetal bovine serum and McCoy's 5A medium with a final concentration of 10%.
(§2) Test steps: SNU-16 and RT4 cells that have reached 80% cell confluency were digested by trypsin, centrifuged and re-suspended for counting, and 3500 and 6000 cells/mL of SNU-16 and RT4 cell suspensions were prepared with medium, respectively. Add a 96-well cell culture plate (90 μL/well) and place in a cell culture incubator containing 5% CO2 at 37° C. […] The diluted compound stock solution was further diluted with SNU-16 and RT4 medium and the diluted mixture was transferred to the corresponding cell plates, respectively. […] Mix and centrifuge and then place in a cell culture incubator containing 5% CO2 for 3 days at 37° C. Take out the 96-well cell culture plate and add CellTiterGlo (CTG, Chemiluminescent Cell Viability Assay) reagent (100 L/well. Mix and centrifuge, and then incubate for 10 min at room temperature. After gentle shaking, the absorbance at 450 nm wavelength was determined on the SpectraMax M5 Reader, and the absorbance at 650 nm was used as a reference (i.e., 450 nm absorbance −650 nm absorbance) to calculate the suppression.

[2] = system: human gastric cancer cells (SNU-16); test: Proliferation inhibition of human gastric cancer cells SNU-16 (CellTiter-Glo); type: cell-based; settings: 72 h, SNU-16, 3 days
Procedure: as §1, §2

Sequence of FGFR4 (P22455 22-802): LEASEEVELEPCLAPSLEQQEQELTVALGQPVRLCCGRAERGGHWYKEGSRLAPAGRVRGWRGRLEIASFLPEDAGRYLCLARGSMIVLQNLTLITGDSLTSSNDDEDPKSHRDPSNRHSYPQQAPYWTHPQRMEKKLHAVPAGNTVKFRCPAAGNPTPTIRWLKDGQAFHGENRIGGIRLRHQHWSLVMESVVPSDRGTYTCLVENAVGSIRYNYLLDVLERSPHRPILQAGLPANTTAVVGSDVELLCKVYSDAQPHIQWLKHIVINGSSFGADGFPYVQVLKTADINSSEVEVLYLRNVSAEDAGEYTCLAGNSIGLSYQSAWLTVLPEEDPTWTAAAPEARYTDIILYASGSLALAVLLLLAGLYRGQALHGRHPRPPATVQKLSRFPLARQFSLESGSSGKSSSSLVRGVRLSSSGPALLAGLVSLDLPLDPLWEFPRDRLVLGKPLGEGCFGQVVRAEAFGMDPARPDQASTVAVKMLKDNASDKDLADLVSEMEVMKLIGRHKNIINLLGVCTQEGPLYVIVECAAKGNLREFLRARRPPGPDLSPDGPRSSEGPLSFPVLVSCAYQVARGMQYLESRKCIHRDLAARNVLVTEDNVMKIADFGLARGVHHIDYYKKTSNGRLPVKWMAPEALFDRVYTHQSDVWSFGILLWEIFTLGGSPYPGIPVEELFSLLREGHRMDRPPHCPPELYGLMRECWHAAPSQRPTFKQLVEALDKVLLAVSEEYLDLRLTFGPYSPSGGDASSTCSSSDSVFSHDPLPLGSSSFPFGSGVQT
Sequence of FGFR1 (P11362 22-822): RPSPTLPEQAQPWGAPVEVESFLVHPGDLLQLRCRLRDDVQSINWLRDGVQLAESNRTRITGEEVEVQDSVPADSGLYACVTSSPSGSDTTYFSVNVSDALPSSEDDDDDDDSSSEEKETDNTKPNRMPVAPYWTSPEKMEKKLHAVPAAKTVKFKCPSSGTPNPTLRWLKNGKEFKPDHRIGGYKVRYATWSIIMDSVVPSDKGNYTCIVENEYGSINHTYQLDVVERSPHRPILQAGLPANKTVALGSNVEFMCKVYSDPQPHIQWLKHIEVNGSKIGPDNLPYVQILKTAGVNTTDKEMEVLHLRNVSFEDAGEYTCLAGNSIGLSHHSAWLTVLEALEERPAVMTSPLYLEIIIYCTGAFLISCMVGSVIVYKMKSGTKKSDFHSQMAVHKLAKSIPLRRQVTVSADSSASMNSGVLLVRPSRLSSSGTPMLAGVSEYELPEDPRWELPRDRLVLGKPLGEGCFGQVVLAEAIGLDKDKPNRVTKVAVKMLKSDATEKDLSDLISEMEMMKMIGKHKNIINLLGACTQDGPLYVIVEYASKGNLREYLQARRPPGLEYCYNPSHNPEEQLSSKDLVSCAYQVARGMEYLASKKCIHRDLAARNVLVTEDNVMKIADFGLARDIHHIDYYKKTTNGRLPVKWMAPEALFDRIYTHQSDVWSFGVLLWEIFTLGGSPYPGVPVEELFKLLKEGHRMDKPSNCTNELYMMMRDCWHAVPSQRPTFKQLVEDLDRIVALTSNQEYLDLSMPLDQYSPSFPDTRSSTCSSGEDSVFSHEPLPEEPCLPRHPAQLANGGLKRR
Sequence of FGFR2 (P21802 22-821): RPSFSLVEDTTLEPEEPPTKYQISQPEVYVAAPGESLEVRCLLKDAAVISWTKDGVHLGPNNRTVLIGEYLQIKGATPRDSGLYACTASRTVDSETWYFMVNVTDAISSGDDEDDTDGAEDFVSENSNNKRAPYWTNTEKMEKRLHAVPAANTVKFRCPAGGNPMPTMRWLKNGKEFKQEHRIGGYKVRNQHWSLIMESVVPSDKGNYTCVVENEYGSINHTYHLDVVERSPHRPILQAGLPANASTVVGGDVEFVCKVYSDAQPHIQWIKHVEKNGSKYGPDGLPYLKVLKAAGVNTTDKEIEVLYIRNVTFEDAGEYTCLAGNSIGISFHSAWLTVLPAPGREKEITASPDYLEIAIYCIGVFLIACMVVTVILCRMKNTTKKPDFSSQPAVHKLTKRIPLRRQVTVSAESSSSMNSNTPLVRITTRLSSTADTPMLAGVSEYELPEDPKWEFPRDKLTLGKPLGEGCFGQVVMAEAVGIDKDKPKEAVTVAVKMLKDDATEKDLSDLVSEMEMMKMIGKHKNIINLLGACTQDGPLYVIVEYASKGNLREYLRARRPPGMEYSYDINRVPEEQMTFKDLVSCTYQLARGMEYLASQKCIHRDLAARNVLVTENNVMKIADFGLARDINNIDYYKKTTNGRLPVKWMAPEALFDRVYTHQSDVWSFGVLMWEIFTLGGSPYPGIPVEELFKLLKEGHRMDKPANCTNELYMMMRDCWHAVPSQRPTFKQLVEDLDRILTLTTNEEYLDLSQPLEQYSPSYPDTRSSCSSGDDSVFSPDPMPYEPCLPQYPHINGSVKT
Sequence of FGFR3 (P22607 23-806): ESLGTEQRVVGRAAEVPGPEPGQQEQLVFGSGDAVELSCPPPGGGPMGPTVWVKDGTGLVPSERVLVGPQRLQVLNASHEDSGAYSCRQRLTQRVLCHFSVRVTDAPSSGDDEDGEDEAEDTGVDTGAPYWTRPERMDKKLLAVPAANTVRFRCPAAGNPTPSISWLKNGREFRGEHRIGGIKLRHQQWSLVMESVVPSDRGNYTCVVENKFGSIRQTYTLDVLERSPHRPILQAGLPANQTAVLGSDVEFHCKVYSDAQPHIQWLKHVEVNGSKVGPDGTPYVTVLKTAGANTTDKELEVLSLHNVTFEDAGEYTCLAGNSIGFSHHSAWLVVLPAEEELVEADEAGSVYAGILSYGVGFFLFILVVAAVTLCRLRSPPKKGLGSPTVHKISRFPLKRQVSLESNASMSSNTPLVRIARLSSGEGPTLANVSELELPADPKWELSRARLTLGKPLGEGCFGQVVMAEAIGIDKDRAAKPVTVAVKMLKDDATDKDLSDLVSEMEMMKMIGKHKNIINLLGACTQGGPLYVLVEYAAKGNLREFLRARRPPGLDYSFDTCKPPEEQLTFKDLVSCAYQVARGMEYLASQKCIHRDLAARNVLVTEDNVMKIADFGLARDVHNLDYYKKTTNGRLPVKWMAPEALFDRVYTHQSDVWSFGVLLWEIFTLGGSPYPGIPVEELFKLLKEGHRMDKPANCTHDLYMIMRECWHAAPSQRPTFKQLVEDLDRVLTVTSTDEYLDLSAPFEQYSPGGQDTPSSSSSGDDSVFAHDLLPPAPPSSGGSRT
T1 sequence (Q12809 whole entry): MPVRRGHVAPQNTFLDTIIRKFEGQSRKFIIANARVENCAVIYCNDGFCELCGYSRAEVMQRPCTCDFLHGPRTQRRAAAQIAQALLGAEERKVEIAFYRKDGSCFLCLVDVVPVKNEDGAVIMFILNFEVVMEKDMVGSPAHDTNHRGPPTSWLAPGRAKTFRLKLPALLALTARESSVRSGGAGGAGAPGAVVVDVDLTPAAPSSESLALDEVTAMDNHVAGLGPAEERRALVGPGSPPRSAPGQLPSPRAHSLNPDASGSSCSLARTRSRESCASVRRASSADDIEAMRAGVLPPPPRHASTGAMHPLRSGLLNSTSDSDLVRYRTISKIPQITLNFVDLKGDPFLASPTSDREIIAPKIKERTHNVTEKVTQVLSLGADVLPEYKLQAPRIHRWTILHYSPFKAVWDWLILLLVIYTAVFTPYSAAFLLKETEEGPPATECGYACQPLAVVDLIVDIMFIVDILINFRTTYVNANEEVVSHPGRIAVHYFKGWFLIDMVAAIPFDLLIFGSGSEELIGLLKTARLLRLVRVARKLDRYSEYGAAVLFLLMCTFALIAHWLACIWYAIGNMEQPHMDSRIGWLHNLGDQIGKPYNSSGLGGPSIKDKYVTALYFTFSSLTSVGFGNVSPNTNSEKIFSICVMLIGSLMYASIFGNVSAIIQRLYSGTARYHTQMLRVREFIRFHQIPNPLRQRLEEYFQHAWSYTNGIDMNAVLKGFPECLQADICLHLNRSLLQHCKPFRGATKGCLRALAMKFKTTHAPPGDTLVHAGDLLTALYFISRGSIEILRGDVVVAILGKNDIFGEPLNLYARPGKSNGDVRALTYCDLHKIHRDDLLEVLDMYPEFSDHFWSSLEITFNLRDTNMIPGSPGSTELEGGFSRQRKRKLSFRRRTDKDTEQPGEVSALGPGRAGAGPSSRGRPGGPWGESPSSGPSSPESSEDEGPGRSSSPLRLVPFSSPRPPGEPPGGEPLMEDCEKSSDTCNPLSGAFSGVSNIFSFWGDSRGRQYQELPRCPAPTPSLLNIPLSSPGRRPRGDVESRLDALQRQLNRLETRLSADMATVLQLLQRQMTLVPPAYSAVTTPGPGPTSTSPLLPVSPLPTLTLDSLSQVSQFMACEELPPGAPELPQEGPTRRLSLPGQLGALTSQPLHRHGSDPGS

| IC50 (FGFR2) | IC50 (FGFR3) | IC50 (FGFR1) | IC50 (FGFR4) | IC50 ([1]; Homo sapiens, RT-4, 72 h) | IC50 [2] | IC50 [1] | Compound | IC50 (Hep3B cells; Homo sapiens) | inhibition effect on the hERG channel (hERG potassium channel) | IC50 (Hep3B cells) |
| --- | --- | --- | --- | --- | --- | --- | --- | --- | --- | --- |
| < 10 nM | < 10 nM | < 10 nM | < 10 nM |  |  |  | C=CC(=O)N1CC[C@H](n2nc(C#Cc3cc(OC)cc(OC)c3)c3c(N)n[nH]c(=O)c32)C1 [Compound 26, (S)-1-(1-acryloylpyrrolidin-3-yl)-4-amino-3-((3,5-dimethoxyphenyl)ethynyl)-1,6-dihydro-7H-pyrazolo[3,4-d]pyridazin-7-one] | < 10 nM |  |  |
| < 10 nM | < 10 nM | < 10 nM | < 10 nM |  |  |  | C=CC(=O)N1CCC[C@H](n2cc(C#Cc3cc(OC)cc(OC)c3)c3c(N)n[nH]c(=O)c32)C1 [Compound 20, (S)-1-(1-acryloylpiperidin-3-yl)-4-amino-3-((3,5-dimethoxyphenyl)ethynyl)-1,6-dihydro-7H-pyrrolo[2,3-d]pyridazin-7-one] | < 10 nM |  |  |
| < 10 nM | < 10 nM | < 10 nM | < 10 nM | 3.4 nM | < 0.015 nM |  | C=CC(=O)N1CC[C@H](n2cc(-c3cc4cc(C)cc(OC)c4s3)c3c(N)n[nH]c(=O)c32)C1 [Compound 38, (S)-1-(1-acryloylpyrrolidin-3-yl)-4-amino-3-(7-methoxy-5-methylbenzo[b]thiophen-2-yl)-1,6-dihydro-7H-pyrrolo[2,3-d]pyridazin-7-one] | < 10 nM | moderate inhibitory effect |  |
|  |  |  |  |  |  | 1.8 nM | COc1cc(OC)cc(N(CCNC(C)C)c2ccc3ncc(-c4cnn(C)c4)nc3c2)c1 [Erdafinib] |  |  |  |
|  |  |  |  | 11.8 nM | 0.572 nM |  | CCN1CCN(c2ccc(Nc3cc(N(C)C(=O)Nc4c(Cl)c(OC)cc(OC)c4Cl)ncn3)cc2)CC1 [BGJ398, infigratinib, reference compound] | 10 to 100 nM |  |  |
|  |  |  |  | 6 nM | 0.249 nM |  | CCN1C(=O)N(c2c(F)c(OC)cc(OC)c2F)Cc2cnc3[nH]c(CN4CCOCC4)cc3c21 [Pemigatinib, reference compound] | 10 to 100 nM |  |  |
|  |  |  |  |  |  |  | (S)-4-amino-1-(1-(but-2-ynoyl)pyrrolidin-3-yl)-3-((2,6-difluoro-3,5-dimethoxyphenyl)ethynyl)-1,6-dihydro-7H-pyrazolo[3,4-d]pyridazin-7-one [Compound 34] |  |  | < 10 nM |
| < 10 nM | < 10 nM | < 10 nM | < 10 nM |  |  |  | C=CC(=O)N1CC[C@H](n2nc(C#Cc3c(Cl)c(OC)cc(OC)c3Cl)c3c(N)n[nH]c(=O)c32)C1 [Compound 30, (S)-1-(1-acryloylpyrrolidin-3-yl)-4-amino-3-((2,6-dichloro-3,5-dimethoxyphenyl)ethynyl)-1,6-dihydro-7H-pyrazolo[3,4-d]pyridazin-7-one] | < 10 nM |  |  |
| < 10 nM | < 10 nM | < 10 nM | < 10 nM |  |  |  | C=CC(=O)N1CC[C@H](n2nc(-c3cc4cc(C)cc(OC)c4s3)c3c(N)n[nH]c(=O)c32)C1 [Compound 36, (S)-1-(1-acryloylpyrrolidin-3-yl)-4-amino-3-(7-methoxy-5-methylbenzo[b]thiophen-2-yl)-1,6-dihydro-7H-pyrazolo[3,4-d]pyridazin-7-one] | < 10 nM |  |  |
| < 10 nM | < 10 nM | < 10 nM | < 10 nM |  |  |  | C=CC(=O)N1CCC[C@H](n2nc(C#Cc3cc(OC)cc(OC)c3)c3c(N)n[nH]c(=O)c32)C1 [Compound 24, (S)-1-(1-acryloylpiperidin-3-yl)-4-amino-3-((3,5-dimethoxyphenyl)ethynyl)-1,6-dihydro-7H-pyrazolo[3,4-d]pyridazin-7-one] | < 10 nM |  |  |
| < 10 nM | < 10 nM | < 10 nM | < 10 nM | 1.3 nM | 0.025 nM |  | C=CC(=O)N1CC[C@H](n2nc(C#Cc3c(F)c(OC)cc(OC)c3F)c3c(N)n[nH]c(=O)c32)C1 [Compound 28, (S)-1-(1-acryloylpyrrolidin-3-yl)-4-amino-3-((2,6-difluoro-3,5-dimethoxyphenyl)ethynyl)-1,6-dihydro-7H-pyrazolo[3,4-d]pyridazin-7-one] |  | weak or no inhibition effect |  |
| 10 to 100 nM | 10 to 100 nM | 10 to 100 nM | 100 to 500 nM |  |  |  | CC#CC(=O)N1CC[C@H](Nc2ncc(Br)c(C#Cc3cc(OC)cc(OC)c3)n2)C1 [Compound 13, (S)-1-(3-((5-bromo-4-((3,5-dimethoxyphenyl)ethynyl)pyrimidin-2-yl)amino)pyrrolidin-1-yl)but-2-yn-1-one] |  |  |  |
| < 10 nM | < 10 nM | < 10 nM | < 10 nM |  |  |  | CC#CC(=O)N1CC[C@H](n2cc(C#Cc3cc(OC)cc(OC)c3)c3c(N)n[nH]c(=O)c32)C1 [Compound 23, (S)-4-amino-1-(1-(but-2-ynoyl)pyrrolidin-3-yl)-3-((3,5-dimethoxyphenyl)ethynyl)-1,6-dihydro-7H-pyrrolo[2,3-d]pyridazin-7-one] |  |  |  |
| < 10 nM | < 10 nM | < 10 nM | < 10 nM |  |  |  | C=CC(=O)N1CC[C@H](n2cc(C#Cc3cc(OC)cc(OC)c3)c3c(N)n[nH]c(=O)c32)C1 [Compound 22, (S)-1-(1-acryloylpyrrolidin-3-yl)-4-amino-3-((3,5-dimethoxyphenyl)ethynyl)-1,6-dihydro-7H-pyrrolo[2,3-d]pyridazin-7-one] | < 10 nM |  |  |
| < 10 nM | < 10 nM | < 10 nM | < 10 nM |  |  |  | C=CC(=O)N1CC[C@H](n2cc(-c3cn(C)c4ccccc34)c3c(N)n[nH]c(=O)c32)C1 [Compound 42, (S)-1-(1-acryloylpyrrolidin-3-yl)-4-amino-3-(1-methyl-1H-indol-3-yl)-1,6-dihydro-7H-pyrrolo[2,3-d]pyridazin-7-one] |  |  |  |
